Reference: publication PMC4494771, “Synthesis, structure, and biological activity of novel heterocyclic sulfonyl-carboximidamides” (Monatshefte Fur Chemie, 2013)

What was measured:
SK-OV-3 = test: NCI-60 DTP human tumor cell line screening; type: cell-based; conditions: Ovarian cancer SK-OV-3
SF-295 = test: NCI-60 DTP human tumor cell line screening; type: cell-based; conditions: CNS cancer SF-295
UACC-257 = test: NCI-60 DTP human tumor cell line screening; type: cell-based; conditions: Melanoma UACC-257
SR = test: NCI-60 DTP human tumor cell line screening; type: cell-based; conditions: Leukemia SR
A549/ATCC = test: NCI-60 DTP human tumor cell line screening; type: cell-based; conditions: Non-small cell lung cancer A549/ATCC
HL-60 (TB) = test: NCI-60 DTP human tumor cell line screening; type: cell-based
DU-145 = test: NCI-60 DTP human tumor cell line screening; type: cell-based; conditions: Prostate cancer DU-145
NCI-H522 = test: NCI-60 DTP human tumor cell line screening; type: cell-based; conditions: Non-small cell lung cancer NCI-H522
786-0 = test: NCI-60 DTP human tumor cell line screening; type: cell-based; conditions: Renal cancer 786-0
K-562 = test: NCI-60 DTP human tumor cell line screening; type: cell-based
COLO 205 = test: NCI-60 DTP human tumor cell line screening; type: cell-based; conditions: Colon cancer COLO 205
SN 12C = test: NCI-60 DTP human tumor cell line screening; type: cell-based; conditions: Renal cancer SN 12C
PC-3 = test: NCI-60 DTP human tumor cell line screening; type: cell-based; conditions: Prostate cancer PC-3
CAKI-1 = test: NCI-60 DTP human tumor cell line screening; type: cell-based; conditions: Renal cancer CAKI-1
A498 = test: NCI-60 DTP human tumor cell line screening; type: cell-based; conditions: Renal cancer A498
IGROV1 = test: NCI-60 DTP human tumor cell line screening; type: cell-based; conditions: Ovarian cancer IGROV1
HOP-92 = test: NCI-60 DTP human tumor cell line screening; type: cell-based; conditions: Non-small cell lung cancer HOP-92
OVCAR-8 = test: NCI-60 DTP human tumor cell line screening; type: cell-based; conditions: Ovarian cancer OVCAR-8
RXF 393 = test: NCI-60 DTP human tumor cell line screening; type: cell-based; conditions: Renal cancer RXF 393
SNB-75 = test: NCI-60 DTP human tumor cell line screening; type: cell-based; conditions: CNS cancer SNB-75
HT29 = test: NCI-60 DTP human tumor cell line screening; type: cell-based
BT-549 = test: NCI-60 DTP human tumor cell line screening; type: cell-based; conditions: Breast cancer BT-549
leukemia cell lines = test: NCI-60 DTP human tumor cell line screening, leukemia panel; type: cell-based; conditions: mean for leukemia cell line panel, read-out: GI 50 mean value
NCI-H23 = test: NCI-60 DTP human tumor cell line screening; type: cell-based; conditions: Non-small cell lung cancer NCI-H23
HCT-116 = test: NCI-60 DTP human tumor cell line screening; type: cell-based; conditions: Colon cancer HCT-116
SK-MEL-5 = test: NCI-60 DTP human tumor cell line screening
[1] = system: panel of 60 human tumor cell lines; test: NCI-60 DTP human tumor cell line screening, whole panel
NCI/ADR-RES = test: NCI-60 DTP human tumor cell line screening; type: cell-based
SF-268 = test: NCI-60 DTP human tumor cell line screening; type: cell-based; conditions: CNS cancer SF-268
OVCAR-3 = test: NCI-60 DTP human tumor cell line screening; type: cell-based; conditions: Ovarian cancer OVCAR-3
MDA-MB-435 = test: NCI-60 DTP human tumor cell line screening; type: cell-based
LOX IMVI = test: NCI-60 DTP human tumor cell line screening; type: cell-based; conditions: Melanoma LOX IMVI
OVCAR-5 = test: NCI-60 DTP human tumor cell line screening; type: cell-based; conditions: Ovarian cancer OVCAR-5
HS 578T = test: NCI-60 DTP human tumor cell line screening; type: cell-based; conditions: Breast cancer HS 578T
NCI-H226 = test: NCI-60 DTP human tumor cell line screening; type: cell-based; conditions: Non-small cell lung cancer NCI-H226
[2] = Homo sapiens, SK-MEL-5, read-out: LC 50

What does the source list for NC(=NS(=O)(=O)c1ccccc1Cl)c1ccc2ccccc2n1 [Compound 15, N′-(2-Chlorophenylsulfonyl)quinoline-2-carboximidamide]?
GI50 (SK-OV-3; Homo sapiens): 3.93 µM; TGI (SK-OV-3): ^c (Determined TGI values were >100 μM); TGI (SF-295): 86.30 µM; GI50 (SF-295; Homo sapiens): 3.83 µM; GI50 (UACC-257; Homo sapiens): 11.7 µM; TGI (UACC-257): ^c (Determined TGI values were >100 μM); GI50 (SR; Homo sapiens): 0.92 µM; TGI (SR): 21.40 µM; GI50 (A549/ATCC; Homo sapiens): 5.37 µM; TGI (A549/ATCC): ^c (Determined TGI values were >100 μM); inhibition at 10 µM (HL-60 (TB); Homo sapiens, HL-60, read-out: Growth inhibition ΔGI): 19.7%; GI50 (HL-60 (TB); Homo sapiens, Leukemia HL-60 (TB)): 2.29 µM; TGI (HL-60 (TB); Leukemia HL-60 (TB)): 8.41 µM; GI50 (DU-145; Homo sapiens): 4.96 µM; TGI (DU-145): ^c (Determined TGI values were >100 μM); GI50 (NCI-H522; Homo sapiens): 2.28 µM; TGI (NCI-H522): 7.62 µM; GI50 (786-0; Homo sapiens): 4.94 µM; TGI (786-0): ^c (Determined TGI values were >100 μM); inhibition at 10 µM (K-562; Homo sapiens, K562, read-out: Growth inhibition ΔGI): 35.9%; GI50 (K-562; Homo sapiens, K562, Leukemia K-562): 3.11 µM; TGI (K-562; Leukemia K-562): ^c (Determined TGI values were >100 μM); TGI (COLO 205): 16.00 µM; GI50 (COLO 205; Homo sapiens): 3.68 µM; GI50 (SN 12C; Homo sapiens, SN12C): 7.67 µM; TGI (SN 12C): ^c (Determined TGI values were >100 μM); GI50 (PC-3; Homo sapiens): 9.59 µM; TGI (PC-3): ^c (Determined TGI values were >100 μM); GI50 (CAKI-1; Homo sapiens): 5.21 µM; TGI (CAKI-1): ^c (Determined TGI values were >100 μM); GI50 (A498; Homo sapiens): 8.08 µM; TGI (A498): ^c (Determined TGI values were >100 μM); GI50 (IGROV1; Homo sapiens, IGROV-1): 9.42 µM; TGI (IGROV1): ^c (Determined TGI values were >100 μM); GI50 (HOP-92; Homo sapiens): 9.34 µM; TGI (HOP-92): 90.80 µM; GI50 (OVCAR-8; Homo sapiens): 5.74 µM; TGI (OVCAR-8): 12.00 µM; GI50 (RXF 393; Homo sapiens): 4.02 µM; TGI (RXF 393): 35.90 µM; TGI (SNB-75): 30.60 µM; GI50 (SNB-75; Homo sapiens): 2.52 µM; TGI (HT29; Colon cancer HT29): 14.90 µM; inhibition at 10 µM (HT29; Homo sapiens, HT-29, read-out: Growth inhibition ΔGI): 60.4%; GI50 (HT29; Homo sapiens, HT-29, Colon cancer HT29): 3.4 µM; TGI (BT-549): 56.00 µM; GI50 (BT-549; Homo sapiens): 5.08 µM; GI50 (leukemia cell lines): 3.52 µM; GI50 (NCI-H23; Homo sapiens): 5.44 µM; TGI (NCI-H23): ^c (Determined TGI values were >100 μM); TGI (HCT-116): ^c (Determined TGI values were >100 μM); GI50 (HCT-116; Homo sapiens): 4.66 µM; GI50 (SK-MEL-5; Homo sapiens, SK-MEL-5): 3.31 µM; CC50 (SK-MEL-5; [2]): 36.2 µM; TGI (SK-MEL-5; Melanoma SK-MEL-5): 50.50 µM; Growth percent mean values (MG_MID) ([1]; 10 μM, mean of growth percent for all tested cell lines): 53.4%; GI50 ([1]; Homo sapiens): 0.92 to 13 µM; CC50 [1, 2]: > 100 µM; inhibition at 10 µM (NCI/ADR-RES; Homo sapiens, NCI/ADR-RES, read-out: Growth inhibition ΔGI): 42.9%; GI50 (NCI/ADR-RES; Homo sapiens, Ovarian cancer NCI/ADR-RES): 2.32 µM; TGI (NCI/ADR-RES; Ovarian cancer NCI/ADR-RES): 50.50 µM; TGI (SF-268): ^c (Determined TGI values were >100 μM); GI50 (SF-268; Homo sapiens): 6.79 µM; GI50 (OVCAR-3): 9.27 µM; inhibition at 10 µM (MDA-MB-435; Homo sapiens, MDA-MB-435, read-out: Growth inhibition ΔGI): 80.4%; GI50 (MDA-MB-435; Homo sapiens, Melanoma MDA-MB-435): 1.13 µM; TGI (MDA-MB-435; Melanoma MDA-MB-435): 3.78 µM; GI50 (LOX IMVI; Homo sapiens): 4.05 µM; TGI (LOX IMVI): ^c (Determined TGI values were >100 μM); GI50 (OVCAR-5; Homo sapiens): 7.71 µM; TGI (OVCAR-5): ^c (Determined TGI values were >100 μM); TGI (HS 578T): ^c (Determined TGI values were >100 μM); GI50 (HS 578T; Homo sapiens): 8.98 µM; GI50 (NCI-H226; Homo sapiens): 10.8 µM; TGI (NCI-H226): ^c (Determined TGI values were >100 μM)
